Measured values from article PMC9227944, “Simultaneous Spray Drying for Combination Dry Powder Inhaler Formulations” (Pharmaceutics, 2022).
Values after ≈ are worked out from the molar mass of the structure shown.

Experiments:
[1] = Chemical stability in solution; format: physicochemical; conditions: bevacizumab and cisplatin in the same aqueous solution
human recombinant VEGF = target: T1, human recombinant VEGF (Homo sapiens, UniProt P15692); test: VEGF binding competitive ELISA assay; conditions: compared with BEV stock positive control
T1 construct: purchased R&D Systems
T1 sequence (P15692 1-191 isoform P15692-4): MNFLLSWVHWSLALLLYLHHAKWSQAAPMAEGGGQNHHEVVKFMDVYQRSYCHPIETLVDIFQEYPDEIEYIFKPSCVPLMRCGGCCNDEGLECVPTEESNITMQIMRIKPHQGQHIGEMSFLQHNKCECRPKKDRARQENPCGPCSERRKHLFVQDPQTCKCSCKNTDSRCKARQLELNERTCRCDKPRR
Experimental: Spray-dried powders or as-received API were reconstituted to a 4 mg/mL active in the buffered saline and allowed to dissolve for 60 min. […] Standards were prepared according to the kit protocol.
After incubation, 50 µL of the assay diluent was added to each of the wells of the supplied plate. A total of 200 µL each of the sample (in triplicate) and standards were added to respective wells and incubated for 2 h at ambient temperature. The plate was washed three times with 400 µL of the kit’s wash buffer, then 200 µL of the VEGF-conjugate was added. The plate was incubated for another 2 h, then washed again three times, as previously. A 1:1 mixture of the kit’s color reagent A and B were mixed, then 200 µL was added to each well. After a 30 min incubation at ambient temperature, 50 µL of stop solution was added to each well. The absorbances were read on an M5e plate reader (Molecular Devices, San Jose, CA, USA) using a 450 nm detection wavelength and 540 nm as the blank wavelength for baseline correction. The quantified concentration of unbound VEGF in pg/mL was reported. All samples were analyzed in triplicate.
Briefly, reconstituted simul-spray powders were incubated with VEGF protein in the assay buffer. Next, the quantity of unbound VEGF in the solution was quantified by a commercially available VEGF ELISA assay kit.

[2] = ligand exchange; cited from earlier work
[3] = Equilibrium solubility of API and excipients in spray solvents (TGA of saturated supernatant)
Experimental: The solutions were centrifuged to remove excess solids. A total of 50 µL of the supernatant was pipetted into an aluminum pan and placed into a Thermogravimetric Analyzer (Discovery TGA, TA Instruments, New Castle, DE, USA). The sample was heated to 130 °C at a ramp rate of 50 °C/min and then held isothermal for 10 min to allow all of the solvent to evaporate. The final mass of the sample (of the known 50 µL volume) was recorded and used to determine the solubility in mg/mL. Samples were measured in triplicate.
Solubility screening was performed on the three small molecule APIs and the L-leucine excipient in water, 90/10 methanol/water and 80/20 ethanol/water by weight. These solvent ratios were chosen to maximize the solubility of L-leucine and API. Additional details on solubility and formulation selection can be found in the Supplementary Information.

[4] = water, thermodynamic from solid, Solubility, mg/mL in Water
[5] = organic solvent or mixture, thermodynamic from solid, Solubility, mg/mL in 90/10 Methanol/Water

Structure (SMILES): N.N.[Cl][Pt][Cl] [CP, cisplatin]
- Chemical stability when co-dissolved [1]: not chemically stable when co-dissolved in the same solution
- VEGF inhibition (in words) (human recombinant VEGF): do not inhibit VEGF measurably
- Chemical stability in aqueous solution [2]: not chemically stable in an aqueous solution for longer than a few hours

Structure (SMILES): C#Cc1cccc(Nc2ncnc3cc(OCCOC)c(OCCOC)cc23)c1 [ERL, erlotinib]
- VEGF inhibition (in words) (human recombinant VEGF): do not inhibit VEGF measurably
- solubility ([3]; 80/20 ethanol/water by weight, organic solvent or mixture, thermodynamic from solid, Solubility, mg/mL in 80/20 Ethanol/Water, 80/20 ethanol/water by mass): < 1000 µg/mL
- solubility ([3]; 90/10 methanol/water by weight, organic solvent or mixture, thermodynamic from solid, Solubility, mg/mL in 90/10 Methanol/Water, 90/10 methanol/water by mass): 25000 µg/mL (≈ 63.5 mM)
- solubility ([3]; water, Solubility in water at neutral pH, water at neutral pH): < 100 µg/mL
- solubility [3, 4]: < 1000 µg/mL

Structure (SMILES): CC(C)C[C@H](N)C(=O)O [L-Leucine, L-leucine]
- Solubility, mg/mL in 80/20 Ethanol/Water [3]: 2.0 mg/mL (≈ 15.2 mM)
- solubility ([3]; organic solvent or mixture, thermodynamic from solid, Solubility, mg/mL in 80/20 Ethanol/Water): 1700 µg/mL (≈ 13 mM)
- solubility [3, 5]: 2500 µg/mL (≈ 19.1 mM)
- solubility [3, 4]: 21000 µg/mL (≈ 160 mM)

Structure (SMILES): CC(=O)O[C@H]1C(=O)[C@@]2(C)[C@H]([C@H](OC(=O)c3ccccc3)[C@]3(O)C[C@H](OC(=O)[C@H](O)[C@@H](NC(=O)c4ccccc4)c4ccccc4)C(C)=C1C3(C)C)[C@]1(OC(C)=O)CO[C@@H]1C[C@@H]2O [PTX, paclitaxel]
- VEGF inhibition (in words) (human recombinant VEGF): do not inhibit VEGF measurably
- Solubility in water at neutral pH [3]: sparingly soluble
- solubility [3, 5]: < 1000 µg/mL
- solubility [3, 4]: < 1000 µg/mL
